The text below walks through data of ChEMBL document CHEMBL1268849, “A conformationally constrained inhibitor with an enhanced potency for β-tryptase and stability against semicarbazide-sensitive amine oxidase (SSAO)” (Bioorg Med Chem Lett, 2010).

Data set [1] is described as follows: Inhibition of human tryptase-beta using chromogenic substrate S-2366 after 30 mins by spectrophotometry.
Data set [2] in a line: Metabolic stability in guinea pig liver microsomes after 20 mins. Format: ADME, Cavia porcellus, Microsome. The settings on record: read-out: Stability. For orientation: Liver microsomes are a subcellular fraction often used to study metabolism.
For data set [3], the system named is semicarbazide-sensitive amine oxidase (SSAO). Nature of the data set: Chemical stability in presence of 56 ug/mL of human recombinant semicarbazide-sensitive amine oxidase assessed as compound remaining after 24 hrs by LC/MS method. Format: physicochemical. The note with it: read-out: Stability.
Data set [4] addresses Cytochrome P450 3A4 (Homo sapiens, UniProt P08684). Nature of the data set: Inhibition of CYP3A4. Format: ADME.
The nature of data set [5]: Metabolic stability in rat liver microsomes after 20 mins. The settings on record: read-out: Stability. Format: ADME, Microsome.
Data set [6] addresses hERG (KCNH2) (Homo sapiens, UniProt Q12809). Description: Inhibition of human ERG at 10 uM.
A short description of data set [7]: Metabolic stability in human liver microsomes after 20 mins. The settings on record: read-out: Stability. Format: ADME, Microsome.

Molecules are shown by their SMILES. Bounds are passed on as bounds.

Chain of Cytochrome P450 3A4 (P08684 whole entry): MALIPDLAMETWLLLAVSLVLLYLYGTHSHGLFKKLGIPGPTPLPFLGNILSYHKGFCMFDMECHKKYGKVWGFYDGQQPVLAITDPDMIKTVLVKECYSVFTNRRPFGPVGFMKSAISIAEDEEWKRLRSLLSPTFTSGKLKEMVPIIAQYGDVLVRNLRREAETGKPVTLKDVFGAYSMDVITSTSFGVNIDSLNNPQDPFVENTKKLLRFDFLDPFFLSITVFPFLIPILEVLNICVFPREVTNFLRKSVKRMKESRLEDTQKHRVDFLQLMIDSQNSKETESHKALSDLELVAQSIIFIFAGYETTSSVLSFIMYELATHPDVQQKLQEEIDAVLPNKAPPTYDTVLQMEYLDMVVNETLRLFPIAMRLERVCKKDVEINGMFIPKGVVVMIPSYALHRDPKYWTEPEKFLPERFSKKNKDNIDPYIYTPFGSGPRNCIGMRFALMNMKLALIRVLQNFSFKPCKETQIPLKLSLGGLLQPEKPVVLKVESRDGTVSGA
Chain of hERG (KCNH2) (Q12809 whole entry): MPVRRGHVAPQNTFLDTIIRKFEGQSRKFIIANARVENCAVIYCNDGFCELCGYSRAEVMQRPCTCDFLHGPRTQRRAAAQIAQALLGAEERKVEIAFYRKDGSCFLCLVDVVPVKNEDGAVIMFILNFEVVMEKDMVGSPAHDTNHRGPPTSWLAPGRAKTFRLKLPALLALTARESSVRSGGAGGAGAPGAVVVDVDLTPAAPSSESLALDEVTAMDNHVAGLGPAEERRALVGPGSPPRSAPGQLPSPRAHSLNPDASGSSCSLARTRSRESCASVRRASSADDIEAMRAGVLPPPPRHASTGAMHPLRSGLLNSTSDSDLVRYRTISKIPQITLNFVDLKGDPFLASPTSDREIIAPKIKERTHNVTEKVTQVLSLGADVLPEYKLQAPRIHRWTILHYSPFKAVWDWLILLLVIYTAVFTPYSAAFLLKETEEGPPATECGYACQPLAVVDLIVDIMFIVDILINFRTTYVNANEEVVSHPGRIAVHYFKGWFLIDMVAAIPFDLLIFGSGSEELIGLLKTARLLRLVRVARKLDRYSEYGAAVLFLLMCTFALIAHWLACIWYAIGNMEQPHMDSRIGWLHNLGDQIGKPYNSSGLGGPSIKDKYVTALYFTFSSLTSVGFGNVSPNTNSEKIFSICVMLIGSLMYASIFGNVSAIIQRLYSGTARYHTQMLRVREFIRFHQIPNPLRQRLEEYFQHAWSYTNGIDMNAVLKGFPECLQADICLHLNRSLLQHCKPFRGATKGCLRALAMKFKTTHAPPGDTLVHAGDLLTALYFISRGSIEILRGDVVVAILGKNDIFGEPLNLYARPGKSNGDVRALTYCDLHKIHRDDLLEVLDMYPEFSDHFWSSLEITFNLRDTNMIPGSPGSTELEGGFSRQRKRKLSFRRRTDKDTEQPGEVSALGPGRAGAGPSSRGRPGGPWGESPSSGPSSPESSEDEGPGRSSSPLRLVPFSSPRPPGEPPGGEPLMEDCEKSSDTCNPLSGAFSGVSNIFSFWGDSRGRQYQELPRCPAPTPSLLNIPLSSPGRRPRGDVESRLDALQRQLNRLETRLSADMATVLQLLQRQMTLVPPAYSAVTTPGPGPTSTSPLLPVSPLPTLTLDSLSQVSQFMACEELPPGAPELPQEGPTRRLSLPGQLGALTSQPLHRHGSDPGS

The term Ki denotes the dissociation constant of the complex between target and ligand, obtained from inhibition or displacement. Broadly, the inhibition is the change of the read-out against control, counted positive when it falls. Low values mean a weak effect, high ones a strong effect. Turning to `COCCn1cc(C(=O)N2CCC(c3cc(CN)ccc3F)CC2)c2c(C(=O)N(C)C)cccc21.Cl`, the Ki in data set [1] came out at 20 nM. Further, the results for the remaining at 20 min in data set [2], in data set [5] and in data set [7] were 69%, 92% and 67%, respectively. Also, in data set [3], the remaining at 24 h came to 100%. In data set [4], this compound returned an INH above 30 µM. Besides, in data set [6], testing at 10 µM gave an inhibition of 16%.

With `COCCn1cc(C(=O)N2CCC(c3cc(CN)ccc3F)CC2)c2ccccc21`, the Ki in data set [1] came out at 54.2 nM. In data set [3], the remaining at 24 h was 67%.
